Experimental data taken from paper PMC12705485, “Aluminum-[^18F]fluoride radiolabeling of triarylphosphines for cell labeling via the perfluoroaryl azide Staudinger ligation” (EJNMMI Radiopharmacy and Chemistry, 2025).
Where two headings read alike, the source gives them in different places.

Experiments:
[1] = Kinetic studies on the PFAA-Staudinger ligation with 1 by 1H NMR spectroscopy; details: reaction with 1, DMSO-d6, 2.5 mM, 25 °C
Experimental: The kinetics of the Staudinger ligation between 1 and 2a–2c (Scheme 1) were monitored by ^1H NMR spectroscopy, following spectral changes over time.
The kinetic experiments were carried out following a published protocol (Sundhoro et al. [2017]). […] Kinetic models were evaluated by non-linear fitting corresponding to first- and second-order rate laws in Prism 10 (GraphPad, San Diego, CA, USA) as expected for the Staudinger ligation. Fitting was carried out using kinetic models based on reagent decomposition (A) or product formation (P) as shown in the equations below, depending on signal clarity and the magnitude of ^1H NMR spectral changes over time:where [A] = concentration of reactant A at time t, [A]₀ = initial concentration of reactant A (at t = 0), [P] = concentration of product P at time t, [P]₀ = maximum possible product concentration, k = rate constant and t = time elapsed.

[2] = Stability of 2c under simulated radiolabeling conditions (HPLC); type: physicochemical; details: 60 nmol AlCl3, 1:1 0.17 M NaOAc (pH 4.5):EtOH, 30 min
Experimental: The analysis was carried out using a pentafluorophenyl (PFP) column (Kinetex 2.6 µm PFP 100 Å, LC Column 150 × 4.6 mm from Phenomenex, Torrance, CA, USA) and HPLC methods A and B (see SI). The Al^19F-complexes were isolated and analyzed using NMR and/or HRMS. The stability of 2c was also tested in the presence of 60 nmol AlCl3 in 1:1 (v/v) 0.17 M NaOAC (pH 4.5):EtOH, simulating the radiolabeling conditions.

[3] = cited from earlier work
Jurkat cells [4] = test: Flow cytometry of metabolic glycoengineering (phosphine-PEG3-biotin, streptavidin-FITC); type: cell-based, Human; details: 50 µM, 72 h, then 1 µM phosphine-PEG3-biotin
Experimental: Jurkat cells (5 × 10^5 cells in 1.5-mL complete medium per well) were seeded in a non-treated flat-bottom polystyrene 6-well plate (Avantor, Radnor, PA, USA) and incubated in triplicates (n = 3) with 50 μM of 1, 50 μM of Ac4ManNAz (Lumiprobe, Westminster, MD, USA) or 0.5% (v/v) DMSO in complete medium for 72 h in a cell incubator set at 37 °C with 5% CO2 and 95% relative humidity. After incubation, the cells for each condition were combined and washed twice with 5 mL of 1 × Dulbecco's phosphate-buffered saline (DPBS). The cell number and viability were determined using EVE™ automatic cell counter (NanoEnTek, Seoul, Korea). 1 × 10^6 cells were resuspended in 500 µL of a freshly prepared 1 × DPBS (pH 7.4) or 1 µM of phosphine-PEG3-biotin (Thermo Fisher Scientific, Waltham, MA, USA) in 1 × DPBS (n = 3), then transferred to 1.5-mL microtubes, and incubated at ambient temperature for 60 min on a rotating platform. […] After the incubation, 400 µL of FACS (fluorescence-activated cell sorting) buffer (2% FBS in DPBS) was added followed by two washings with 500 µL of FACS buffer. […] Data were analyzed using FlowJo software (FlowJo LLC, Ashland, OR, United States).

Jurkat cells [5] = test: Cell viability during flow cytometry workflow (automatic cell counter / 7-AAD); type: cell-based, Human
Experimental: (§1) After incubation, the cells for each condition were combined and washed twice with 5 mL of 1 × Dulbecco's phosphate-buffered saline (DPBS). The cell number and viability were determined using EVE™ automatic cell counter (NanoEnTek, Seoul, Korea). 1 × 10^6 cells were resuspended in 500 µL of a freshly prepared 1 × DPBS (pH 7.4) or 1 µM of phosphine-PEG3-biotin (Thermo Fisher Scientific, Waltham, MA, USA) in 1 × DPBS (n = 3), then transferred to 1.5-mL microtubes, and incubated at ambient temperature for 60 min on a rotating platform. Then, cells are washed twice with 1 × DPBS, resuspended in 100 µL of a freshly prepared solution of 1:200 streptavidin-fluorescein isothiocyanate (FITC) (0.1 μg, Thermo Fisher Scientific, Waltham, MA, USA) in 1 × DPBS, and incubated for 15 min in the dark on ice with mixing once manually in between. After the incubation, 400 µL of FACS (fluorescence-activated cell sorting) buffer (2% FBS in DPBS) was added followed by two washings with 500 µL of FACS buffer. During the washing step, the samples were centrifuged at 4 °C, […] for 5 min, the supernatant was removed, and the cells were resuspended in fresh buffer, followed by centrifugation. Lastly, cells were resuspended in 500 µL of FACS buffer and transferred to FACS tubes equipped with a 35 µm cell strainer cap. Dead and apoptotic cells were stained by adding 5 µL of 7-aminoactinomycin D (7-AAD) staining solution and incubating for 10 min at ambient temperature in the dark, followed by flow cytometry analysis using LSR Fortessa (BD Biosciences, Franklin Lake, NJ, USA). Unstained samples, samples stained only with streptavidin-FITC, and only with 7-AAD were used as controls. Data were analyzed using FlowJo software (FlowJo LLC, Ashland, OR, United States).

[6] = CyQUANT LDH Cytotoxicity Assay; type: cell-based; details: human, Jurkat T lymphoblasts (Clone E6-1), read-out: cell viability
Experimental: The in vitro cytotoxicity of 1 was assessed using the CyQUANT™ LDH Cytotoxicity Assay (Invitrogen, Waltham, MA, USA), which quantifies membrane damage via extracellular lactate dehydrogenase (LDH) release. Assay reagents (Lysis Buffer, Reaction Mixture, and Stop Solution) were prepared according to the manufacturer’s protocol. Human Jurkat T lymphoblasts (Clone E6-1, ATCC TIB-152™, Manassas, VA, USA) were suspended in complete medium and mixed (1:1) with 1 in complete medium to obtain final concentrations of 10, 20, 50, 125, and 250 μM containing 0.5% v/v DMSO vehicle. Positive control for cytotoxicity (maximum LDH; cells lysed with 10 × Lysis Buffer at 1:10 v/v, prepared before each time point), negative control for cytotoxicity (spontaneous LDH; 0.5% v/v DMSO in complete medium), and complete-medium and serum-free medium blanks (background) were included. Sample-containing and control cell suspensions were plates at a density of 14,000 cells per well in 280 μL on an opaque-walled, clear-bottom 96-well plate. Plates were incubated at 37 °C, 5% CO2 in a humidified incubator for 24, 48, and 72 h. All conditions were run in quadruplicate (n = 4). […] Absorbance was measured at 490 and 680 nm on a Synergy H1 multimode microplate reader (BioTek, Winooski, VT, USA). LDH signal was calculated as Abs490 – Abs680 (background-corrected).
% Cytotoxicity was determined as:

[7] = Cell viability during flow cytometry workflow (automatic cell counter / 7-AAD); type: cell-based, Human; details: human, Jurkat cells, 50 µM, 72 h
Experimental: as §1

**Q.** With `O=C(O)CN(CC(=O)O)CC(CCNC(=O)Cc1ccc(CN(CC(=O)O)[C@@H]2CCCC[C@H]2N(CC(=O)O)CC(=O)O)cc1)OC(=O)c1ccccc1P(c1ccccc1)c1ccccc1` (stereo partly drawn) [2a] as the molecule, how does the “second-order rate constant of PFAA-Staudinger ligation” value [1] read?
**A.** 4.246 × 10^–4 M⁻1 s⁻1

**Q.** For `O=C(O)CN(CC(=O)O)[C@@H]1CCCC[C@H]1N(CC(=O)O)Cc1ccc(CC(=O)NCCNC(=O)c2ccccc2P(c2ccccc2)c2ccccc2)cc1` [2b], which “first-order rate constant of PFAA-Staudinger ligation” value [1] is on record?
**A.** 5.434 × 10^–3 s⁻1

**Q.** Which results are given for `O=C(O)CN(CC(=O)O)C1CCCCC1N(CC(=O)O)Cc1ccc(CC(=O)NC2CCC(CNC(=O)c3ccccc3P(c3ccccc3)c3ccccc3)CC2)cc1` (stereo not drawn) [2c]?
**A.** second-order rate constant of PFAA-Staudinger ligation [1]: 4.071 × 10^–4 M⁻1 s⁻1; stability under radiolabeling conditions without radioactivity (HPLC) [2]: negligible change

**Q.** Which “second-order rate constant, traceless Staudinger ligation” value ([3]; DMF:D2O (6:1) ref Soellner et al. [2006]) does the source give for `SCP(c1ccccc1)c1ccccc1` [(diphenylphosphino)methanethiol] here?
**A.** 7.7 × 10^–3 M^−1 s^−1

**Q.** Which “fluorescent labeling with streptavidin-FITC” value (Jurkat cells [4]) does the source give for `CC(=O)OC[C@H]1OC(OC(C)=O)[C@@H](NC(=O)CN=[N+]=[N-])[C@@H](OC(C)=O)[C@@H]1OC(C)=O` (stereo partly drawn) [Ac4ManNAz, Tetra-acetylated N-azidoacetylmannosamine, reference compound] here?
**A.** observed

**Q.** And the “cell viability after 72 h of incubation” value (Jurkat cells [5]; 50 µM, 72 h)?
**A.** 96%

**Q.** And the “cell viability at the time of analysis” value (Jurkat cells [5]; 50 µM, 72 h, after ligation and staining)?
**A.** 79–82%

**Q.** Which “second-order rate constant, non-traceless Staudinger ligation” value ([3]; ACN:H2O (19:1) ref Lin et al. [2005]) does the source give for `[N-]=[N+]=NCc1ccccc1` [benzyl azide] here?
**A.** 2.5 × 10^–3 M^−1 s^−1

**Q.** For `CC(=O)OCC1OC(OC(C)=O)C(NC(=O)c2c(F)c(F)c(N=[N+]=[N-])c(F)c2F)C(OC(C)=O)C1OC(C)=O` (stereo not drawn) [compound 1, tetra-acetylated PFAA-derivatized mannosamine], which viability ([6]; concentrations up to 50 μM, 24, 48 and 72 h) is on record?
**A.** > 80%

**Q.** What about the viability at 125 µM ([6]; ≥ 125 μM, after 24 and 72 h of incubation) of the same molecule?
**A.** < 80%

**Q.** And the “fluorescent labeling with streptavidin-FITC” value (Jurkat cells [4])?
**A.** minimal/no signal

**Q.** What about the viability at 72 h, 50 µM ([7]; after ligation and staining, read-out: cell viability at the time of analysis) of the same molecule?
**A.** 77 to 80%

**Q.** What about the viability at 72 h, 50 µM ([7]; read-out: cell viability after 72 h of incubation) of the same molecule?
**A.** 91%

**Q.** And the cell viability (Jurkat cells [5]; 100 µM, 72 h of incubation)?
**A.** reduced cell viability
